Values of other authors, collected in US20070212387A1, “COATINGS FOR IMPLANTABLE MEDICAL DEVICES” (Sahajanand Medical Technologies Pvt. Ltd., priority 2006, published 2007).

What was measured:
[1] = in water

## O=c1c(-c2ccc(O)cc2)coc2cc(O)cc(O)c12 [Genistein, 5,7-dihydroxy-3-(4-hydroxyphenyl)-4H-1-benzopyran-4-one]
platelets
  concentration preventing collagen induced platelet aggregation: more than 25 μM
[1]
  water solubility: practically insoluble in water

## O=c1c(O)c(-c2ccc(O)c(O)c2)oc2cc(O)cc(O)c12 [Quercetin, 2-(3,4-dihydroxyphenyl)-3,5,7-trihydroxy-4H-1-benzopyran-4-one]
[1]
  water solubility: practically insoluble in water

## O=c1c(-c2ccc(O)cc2)coc2cc(O[C@@H]3O[C@H](CO)[C@@H](O)[C@H](O)[C@H]3O)cc(O)c12 [Genistin]
[1]
  water solubility: greater water solubility than genistein
